Source: the NIST ThermoML archive (doi:10.1021/acs.jced.5b00882)
Numbers after ± are expanded uncertainties.

Experiment: not given
Conditions: 298.15 K; 101.33 kPa; Liquid; Pycnometric method

Row | SMILES | mass density
1 | CCCCO [butan-1-ol] | 806 ± 1.5 kg/m3
2 | CCO [ethanol] | 785.3 ± 1.5 kg/m3
3 | CCCCCCCO [heptan-1-ol] | 819.2 ± 1.5 kg/m3
4 | CCCCCCO [hexan-1-ol] | 815.7 ± 1.5 kg/m3
5 | CO [methanol] | 786.6 ± 0.6 kg/m3
6 | CCCCCCCCO [octan-1-ol] | 821.6 ± 1.5 kg/m3
7 | CCCCCO [pentan-1-ol] | 811.4 ± 1.5 kg/m3
8 | CCCO [propan-1-ol] | 799.7 ± 1.5 kg/m3

Same assay, conditions: Crystal; DSC

Row | SMILES | Triple point temperature
9 | CNC(=O)NC [1,3-dimethylurea] | 376.35 ± 0.93 K

Experiment: Molar enthalpy of transition or fusion
Conditions: Crystal; DSC

Row | SMILES | Molar enthalpy of transition or fusion
10 | CNC(=O)NC [1,3-dimethylurea] | 3.05 ± 0.0932 kcal/mol
